Activity calls are given as the source filed them. The rule behind the calls is not given here. Non-standard residues stand in square brackets, D forms with d. Residues, ends and D or L forms follow the SMILES beside them. Dab = NCC[C@H](N)C(=O)O
Columns and labels:
Pseudomonas aeruginosa [1] = test: Drug resistance, ratio of MIC for multidrug resistant Pseudomonas aeruginosa after 16 passages to MIC for multidrug resistant Pseudomonas aeruginosa after first exposure; format: functional
Pseudomonas aeruginosa [2] = test: Induction of morphological changes in multidrug resistant Pseudomonas aeruginosa assessed as presence of cellular debris at 16 microg/ml incubated for 1 hrs by SEM analysis; format: functional, organism-based; conditions: dose 16.0 µg/ml
Cell membrane [3] = test: Disruption of cell membrane in multidrug resistant Pseudomonas aeruginosa assessed as increase in red fluorescence at 16 microg/mL incubated after 2 hrs by SYTO9/PI double staining based fluorescence confocal microscopic analysis; format: subcellular; conditions: dose 16.0 µg/ml
Staphylococcus aureus [4] = test: Antimicrobial activity against Staphylococcus aureus ATCC 29213 assessed as inhibition of visible microbial growth incubated for 18 hrs by broth microdilution method; format: functional
[5] = Toxicity in female C57BL/6 mouse assessed as effect on body weight at 20 mg/kg, ip administered daily and measured for 5 days; format: organism-based; conditions: in vivo, 120 h, time 5 day
[6] = Stability in 25% human plasma assessed as compound remaining measured after 24 hrs by RP-HPLC analysis; format: ADME, cell-free; conditions: 25% plasma, read-out: Stability
Pseudomonas aeruginosa [7] = test: Antimicrobial activity against multidrug resistant Pseudomonas aeruginosa at 1.9 to 500 microg/ml in presence of phosphatidylcholine by checkerboard microdilution assay; format: functional, organism-based; conditions: dose 1.9-500 µg/ml
Pseudomonas aeruginosa [8] = test: Antibacterial activity against multidrug resistant Pseudomonas aeruginosa assessed as reduction in bacterial growth at 32 microg/mL measured after 1.5 hrs by bactericidal kinetic assay relative to control; format: functional; parameters: scale not given: the % may be the effect or the level left; conditions: dose 32 µg/ml
Cell membrane [9] = test: Induction of cytoplasmic membrane depolarization in multidrug resistant Pseudomonas aeruginosa assessed as increase in fluorescence intensity at MIC concentration measured within 1 min by DISC3-5 dye based fluorescence analysis; format: subcellular
[10] = Toxicity in female C57BL/6 mouse assessed as histopathological change in liver at 20 mg/kg, ip administered daily and measured for 5 days by H and E staining based analysis; format: organism-based; conditions: in vivo, 120 h, time 5 day
Pseudomonas aeruginosa [11] = test: Antibacterial activity against multidrug resistant Pseudomonas aeruginosa assessed as reduction in bacterial growth at 32 microg/mL by bactericidal kinetic assay; format: functional, organism-based; conditions: dose 32.0 µg/ml, time 0.5-4 hrs
Escherichia coli = test: Antimicrobial activity against Escherichia coli ATCC 25922 assessed as inhibition of visible microbial growth incubated for 18 hrs by broth microdilution method; format: functional
Staphylococcus aureus [12] = test: Induction of morphological changes in multidrug resistant Staphylococcus aureus assessed as surface roughening at 16 microg/ml incubated for 1 hrs by SEM analysis; format: functional, organism-based; conditions: dose 16.0 µg/ml
Pseudomonas aeruginosa [13] = test: In vivo antibacterial activity against multidrug resistant Pseudomonas aeruginosa infected in acute peritonitis C57BL/6 mouse model assessed as reduction in pulmonary edema at 5 to 20 mg/kg, ip measured after 12 hrs by H and E staining based analysis; format: functional, organism-based; conditions: dose 5-20 mg/kg
Cell membrane [14] = test: Induction of outer cell membrane permeabilization in multidrug resistant Pseudomonas aeruginosa assessed as increase in fluorescence intensity measured for 12 mins by NPN uptake assay; format: subcellular; conditions: dose 4-32 µg/ml
Pseudomonas aeruginosa [15] = test: In vivo antibacterial activity against multidrug resistant Pseudomonas aeruginosa infected in acute peritonitis C57BL/6 mouse model assessed as decrease in IL-6 level in serum at 5 to 20 mg/kg, ip measured after 12 hrs by ELISA; format: functional, organism-based; conditions: dose 5-20 mg/kg

CC(C)C[C@H](NC(=O)CN)C(=O)N[C@@H](CCCNC(=N)N)C(=O)N[C@@H](CCN)C(=O)N[C@@H](Cc1c[nH]c2ccccc12)C(=O)N[C@@H](CC(C)C)C(=O)N[C@@H](CCCNC(=N)N)C(=O)N[C@@H](CCN)C(=O)N[C@@H](Cc1ccccc1)C(=O)N[C@@H](CCN)C(=O)N[C@@H](CCN)C(=O)N[C@@H](Cc1ccccc1)C(=O)N[C@@H](Cc1c[nH]c2ccccc12)C(=O)O (H-GLR[Dab]WLR[Dab]F[Dab][Dab]FW-OH)
Ratio (Pseudomonas aeruginosa [1]): <2 | Activity (Pseudomonas aeruginosa [2]): Active | Activity (Cell membrane [3]): Active | MIC (Staphylococcus aureus [4]): 4.8 µM | Activity [5]: Toxic | remaining at 24 h [6]: 40% | Activity (Pseudomonas aeruginosa [7]): Active | Activity (Pseudomonas aeruginosa [8]): 100% | Activity (Cell membrane [9]): Active; Maximal Depolarization Observed | Activity [10]: Non-toxic | Activity (Pseudomonas aeruginosa [11]): Time-dependent-effect | MIC (Escherichia coli): 4.8 µM | Activity (Staphylococcus aureus [12]): Active | Activity (Pseudomonas aeruginosa [13]): Active | Activity (Cell membrane [14]): Active | Activity (Pseudomonas aeruginosa [15]): Active

Reference: ChEMBL document CHEMBL6134827, “The discovery of novel antimicrobial peptides against drug-resistant bacteria based on fragments fusion strategy” (Eur J Med Chem, 2025)
